Patent US11274083B2, “Substituted thiophenyl uracils, salts thereof and the use thereof as herbicidal agents” (Syngenta Crop Protection AG, priority 2017, dated 2022)

Assays:
Format in all cases: in vivo
Echinochloa crus-galli [1] = assay: Herbicidal action pre-emergence, greenhouse pot test; settings: application rate 320 g/ha
Method in brief: (§1)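 Efficacy (%) was estimated visually after about 3 weeks in the greenhouse by comparison with untreated pots. Before that, seeded pots received a surface spray of formulated compound at 320 g/ha or less.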

Alopecurus myosuroides [2] = assay: as above; settings: application rate 320 g/ha
Method in brief: as §1

Polygonum convolvulus [3] = assay: as above; settings: application rate 320 g/ha
Method in brief: as §1

Avena fatua [4] = assay: as above; settings: application rate 320 g/ha
Method in brief: as §1

Viola tricolor [5] = assay: as above; settings: application rate 320 g/ha
Method in brief: as §1

Veronica persica [6] = assay: as above; settings: application rate 320 g/ha
Method in brief: as §1

Hordeum murinum [7] = assay: as above; settings: application rate 320 g/ha
Method in brief: as §1

Pharbitis purpurea [8] = assay: as above; settings: application rate 320 g/ha
Method in brief: as §1

Setaria viridis [9] = assay: as above; settings: application rate 320 g/ha
Method in brief: as §1

Lolium rigidum [10] = assay: as above; settings: application rate 320 g/ha
Method in brief: as §1

Stellaria media [11] = assay: as above; settings: application rate 320 g/ha
Method in brief: as §1

Cyperus esculentus = assay: as above; settings: application rate 320 g/ha
Method in brief: as §1

Abutilon theophrasti [12] = assay: as above; settings: application rate 320 g/ha
Method in brief: as §1

Amaranthus retroflexus [13] = assay: as above
Method in brief: as §1

Matricaria inodora [14] = assay: as above; settings: application rate 320 g/ha
Echinochloa crus-galli [15] = assay: Herbicidal action post-emergence, greenhouse pot test
Method in brief: (§2)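 Plants grown from seed in sandy loam are treated at the one-leaf stage with aqueous suspensions or emulsions, 600 L/ha water rate, 0.5% additive, at 80 g/ha or lower. They then stand about 3 weeks in the greenhouse before visual scoring against untreated controls.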

Alopecurus myosuroides [16] = assay: as above; settings: scored visually after about 3 weeks vs untreated controls
Method in brief: as §2

Polygonum convolvulus [17] = assay: as above
Method in brief: as §2

Avena fatua [18] = assay: as above
Method in brief: as §2

Viola tricolor [19] = assay: as above
Method in brief: as §2

Veronica persica [20] = assay: as above
Method in brief: as §2

Pharbitis purpurea [21] = assay: as above
Method in brief: as §2

Lolium rigidum [22] = assay: as above
Method in brief: as §2

Stellaria media [23] = assay: as above
Method in brief: as §2

Abutilon theophrasti [24] = assay: as above
Method in brief: as §2

Amaranthus retroflexus [25] = assay: as above
Method in brief: as §2

Matricaria inodora [26] = assay: as above
Method in brief: as §2

Triticum aestivum = assay: Crop compatibility post-emergence, greenhouse pot test
Method in brief: (§3)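 Visual % damage rating versus untreated plants (100% = plants dead, 0% = as control), taken about 3 weeks post-treatment. Spray applied to foliage at one-leaf stage (2–3 weeks from sowing) as WP/EC formulation in water plus 0.5% additive, 600 L/ha; greenhouse pots, sandy loam.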

Oryza sativa = assay: as above; settings: application rate 20 g/ha
Method in brief: as §3

Zea mays = assay: as above; settings: application rate 20 g/ha
Method in brief: as §3

Setaria viridis [27] = assay: Herbicidal action post-emergence, greenhouse pot test; settings: application rate 20 g/ha
Method in brief: as §2

Digitaria sanguinalis = assay: as above; settings: application rate 20 g/ha
Hordeum murinum [28] = assay: as above; settings: application rate 20 g/ha
Method in brief: as §2

SMILES	Echinochloa crus-galli (Efficacy in %) (Echinochloa crus-galli [1]) [%]	Polygonum convolvulus (Efficacy in %) (Polygonum convolvulus [3]) [%]	Veronica persica (Efficacy in %) (Veronica persica [6]) [%]	Hordeum murinum (Efficacy in %) (Hordeum murinum [7]) [%]	Pharbitis purpurea (Efficacy in %) (Pharbitis purpurea [8]) [%]	Setaria viridis (Efficacy in %) (Setaria viridis [9]) [%]	Cyperus esculentus (Efficacy in %) (Cyperus esculentus) [%]	Abutilon theophrasti (Efficacy in %) (Abutilon theophrasti [12]) [%]	Matricaria inodora (Efficacy in %) (Matricaria inodora [14]) [%]	Alopecurus myosuroides (Efficacy in %) (Alopecurus myosuroides [16]; application rate 80 g/ha) [%]	Polygonum convolvulus (Efficacy in %) (Polygonum convolvulus [17]; application rate 80 g/ha) [%]	Avena fatua (Efficacy in %) (Avena fatua [18]; application rate 80 g/ha) [%]	Viola tricolor (Efficacy in %) (Viola tricolor [19]; application rate 20 g/ha) [%]	Lolium rigidum (Efficacy in %) (Lolium rigidum [22]; application rate 80 g/ha) [%]	Oryza sativa (Efficacy in %) (Oryza sativa) [%]	Zea mays (Efficacy in %) (Zea mays) [%]	Setaria viridis (Efficacy in %) (Setaria viridis [27]) [%]	Echinochloa crus-galli (Efficacy in %) (Echinochloa crus-galli [15]; application rate 20 g/ha) [%]	Veronica persica (Efficacy in %) (Veronica persica [20]; application rate 20 g/ha) [%]	Pharbitis purpurea (Efficacy in %) (Pharbitis purpurea [21]; application rate 20 g/ha) [%]	further results
CNC(=O)COC(=O)C(C)Sc1cc(-n2c(=O)cc(C(F)(F)F)n(C)c2=O)c(F)cc1Cl (stereo not drawn) [I.1-182]	100	100	100	90	100	100	80	100	100	80	100	90	100	100	20	20	–	–	–	–	Alopecurus myosuroides (Efficacy in %) (Alopecurus myosuroides [2]): 80%; Avena fatua (Efficacy in %) (Avena fatua [4]): 90%; Viola tricolor (Efficacy in %) (Viola tricolor [5]): 100%; Lolium rigidum (Efficacy in %) (Lolium rigidum [10]): 100%; Stellaria media (Efficacy in %) (Stellaria media [11]): 100%; Amaranthus retroflexus (Efficacy in %) (Amaranthus retroflexus [13]; application rate 80 g/ha): 100%; Echinochloa crus-galli (Efficacy in %) (Echinochloa crus-galli [15]; application rate 80 g/ha): 100%; Veronica persica (Efficacy in %) (Veronica persica [20]; application rate 80 g/ha): 100%; Pharbitis purpurea (Efficacy in %) (Pharbitis purpurea [21]; application rate 80 g/ha): 100%; Stellaria media (Efficacy in %) (Stellaria media [23]; application rate 80 g/ha): 100%; Abutilon theophrasti (Efficacy in %) (Abutilon theophrasti [24]; application rate 80 g/ha): 100%; Amaranthus retroflexus (Efficacy in %) (Amaranthus retroflexus [25]; application rate 80 g/ha): 100%; Matricaria inodora (Efficacy in %) (Matricaria inodora [26]; application rate 80 g/ha): 100%; Triticum aestivum (Efficacy in %) (Triticum aestivum; application rate 5 g/ha): 10%
CC(Sc1cc(-n2c(=O)cc(C(F)(F)F)n(C)c2=O)c(F)cc1Cl)C(=O)OC1CCNC1=O (stereo not drawn) [I.1-251]	100	100	100	90	100	100	80	100	100	100	100	80	–	100	20	10	100	–	–	–	Alopecurus myosuroides (Efficacy in %) (Alopecurus myosuroides [2]): 100%; Avena fatua (Efficacy in %) (Avena fatua [4]): 90%; Viola tricolor (Efficacy in %) (Viola tricolor [5]): 100%; Amaranthus retroflexus (Efficacy in %) (Amaranthus retroflexus [13]; application rate 80 g/ha): 100%; Echinochloa crus-galli (Efficacy in %) (Echinochloa crus-galli [15]; application rate 80 g/ha): 100%; Viola tricolor (Efficacy in %) (Viola tricolor [19]; application rate 80 g/ha): 100%; Veronica persica (Efficacy in %) (Veronica persica [20]; application rate 80 g/ha): 100%; Pharbitis purpurea (Efficacy in %) (Pharbitis purpurea [21]; application rate 80 g/ha): 100%; Stellaria media (Efficacy in %) (Stellaria media [23]; application rate 80 g/ha): 100%; Abutilon theophrasti (Efficacy in %) (Abutilon theophrasti [24]; application rate 80 g/ha): 100%; Amaranthus retroflexus (Efficacy in %) (Amaranthus retroflexus [25]; application rate 80 g/ha): 100%; Matricaria inodora (Efficacy in %) (Matricaria inodora [26]; application rate 80 g/ha): 100%; Triticum aestivum (Efficacy in %) (Triticum aestivum; application rate 20 g/ha): 10%
COC(=O)CC(CC(=O)OC)OC(=O)CSc1cc(-n2c(=O)cc(C(F)(F)F)n(C)c2=O)c(F)cc1Cl [I.8-127]	100	100	100	90	100	100	90	100	100	80	100	80	–	90	–	–	100	100	100	100	Lolium rigidum (Efficacy in %) (Lolium rigidum [10]): 90%; Stellaria media (Efficacy in %) (Stellaria media [11]): 100%; Amaranthus retroflexus (Efficacy in %) (Amaranthus retroflexus [13]; application rate 20 g/ha): 100%; Viola tricolor (Efficacy in %) (Viola tricolor [19]; application rate 80 g/ha): 100%; Stellaria media (Efficacy in %) (Stellaria media [23]; application rate 20 g/ha): 100%; Abutilon theophrasti (Efficacy in %) (Abutilon theophrasti [24]; application rate 20 g/ha): 100%; Amaranthus retroflexus (Efficacy in %) (Amaranthus retroflexus [25]; application rate 20 g/ha): 100%; Matricaria inodora (Efficacy in %) (Matricaria inodora [26]; application rate 20 g/ha): 100%
CC(Sc1cc(-n2c(=O)cc(C(F)(F)F)n(C)c2=O)c(F)cc1Cl)C(=O)OCC(=O)OCc1ccccc1 (stereo not drawn) [I.1-46]	–	–	–	–	–	–	–	–	–	–	–	–	100	–	–	–	100	100	100	100	Digitaria sanguinalis (Efficacy in %) (Digitaria sanguinalis): 100%; Alopecurus myosuroides (Efficacy in %) (Alopecurus myosuroides [16]; application rate 20 g/ha): 80%; Polygonum convolvulus (Efficacy in %) (Polygonum convolvulus [17]; application rate 20 g/ha): 100%; Hordeum murinum (Efficacy in %) (Hordeum murinum [28]): 100%; Lolium rigidum (Efficacy in %) (Lolium rigidum [22]; application rate 20 g/ha): 80%; Stellaria media (Efficacy in %) (Stellaria media [23]; application rate 20 g/ha): 100%; Abutilon theophrasti (Efficacy in %) (Abutilon theophrasti [24]; application rate 20 g/ha): 100%; Amaranthus retroflexus (Efficacy in %) (Amaranthus retroflexus [25]; application rate 20 g/ha): 100%; Matricaria inodora (Efficacy in %) (Matricaria inodora [26]; application rate 20 g/ha): 100%; Triticum aestivum (Efficacy in %) (Triticum aestivum; application rate 20 g/ha): 20%
CCOC(=O)CCOC(=O)C(CC)Sc1cc(-n2c(=O)cc(C(F)(F)F)n(C)c2=O)c(F)cc1Cl (stereo not drawn) [I.1-2-3, 3-Ethoxy-3-oxopropyl 2-({2-chloro-4-fluoro-5-[3-methyl-2,6-dioxo-4-(trifluoromethyl)-3,6-dihydropyrimidin-1(2H)-yl]phenyl}sulfanyl)butanoate]	–	–	–	–	–	–	–	–	–	–	–	–	100	–	0	0	100	100	100	100	Digitaria sanguinalis (Efficacy in %) (Digitaria sanguinalis): 100%; Alopecurus myosuroides (Efficacy in %) (Alopecurus myosuroides [16]; application rate 20 g/ha): 90%; Polygonum convolvulus (Efficacy in %) (Polygonum convolvulus [17]; application rate 20 g/ha): 100%; Avena fatua (Efficacy in %) (Avena fatua [18]; application rate 20 g/ha): 100%; Stellaria media (Efficacy in %) (Stellaria media [23]; application rate 20 g/ha): 100%; Abutilon theophrasti (Efficacy in %) (Abutilon theophrasti [24]; application rate 20 g/ha): 100%; Amaranthus retroflexus (Efficacy in %) (Amaranthus retroflexus [25]; application rate 20 g/ha): 100%; Matricaria inodora (Efficacy in %) (Matricaria inodora [26]; application rate 20 g/ha): 100%
